According to ChEMBL document CHEMBL1201862, “PubChem BioAssay data set” (2004):
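Step 1: Grow cells in 96-well plates. Step 2: Expose to compound for 48 hours at 5 concentrations. Step 3: Interpolate endpoints linearly; if unreached, use highest concentration. GI50 = concentration required for 50% inhibition of growth.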 The source made the active and inactive calls. Rule as the data show it: active = GI50 up to about 1.1 µM and inactive = higher.

How the values were obtained:
Test in all cases: NCI anticancer screen, dose series, 48 h
NCI-H522 = system: NCI-H522
OVCAR-5 = system: OVCAR-5
SR = system: SR
SN12C = system: SN12C
CAKI-1 = system: CAKI-1
HOP-92 = system: HOP-92
TK-10 = system: TK-10
HCC 2998 = system: HCC 2998
OVCAR-8 = system: OVCAR-8
SF-295 = system: SF-295
OVCAR-3 = system: OVCAR-3
HOP-62 = system: HOP-62
UACC-62 = system: UACC-62
U-251 = system: U-251
OVCAR-4 = system: OVCAR-4
NCI-H460 = system: NCI-H460
SW-620 = system: SW-620
NCI/ADR-RES = system: NCI/ADR-RES
MDA-N = system: MDA-N
DU-145 = system: DU-145

Compound	GI50 (NCI-H522)	GI50 (OVCAR-5)	GI50 (SR)	GI50 (SN12C)	GI50 (CAKI-1)	GI50 (HOP-92)	GI50 (TK-10)	GI50 (HCC 2998)	GI50 (OVCAR-8)	GI50 (SF-295)	GI50 (OVCAR-3)	GI50 (HOP-62)	GI50 (UACC-62)	GI50 (U-251)	GI50 (OVCAR-4)	GI50 (NCI-H460)	GI50 (SW-620)	GI50 (NCI/ADR-RES)	GI50 (MDA-N)	GI50 (DU-145)
O=C(OCCOCCOC(=O)c1c[nH]cc1-c1ccccc1)c1c[nH]cc1-c1ccccc1	15.3 µM (inactive)	25.8 µM (inactive)	21 µM (inactive)	18.1 µM (inactive)	26.5 µM (inactive)	20.3 µM (inactive)	30.3 µM (inactive)	21.9 µM (inactive)	29.4 µM (inactive)	18.4 µM (inactive)	22.1 µM (inactive)	17.3 µM (inactive)	15.9 µM (inactive)	17.9 µM (inactive)	18.3 µM (inactive)	21.2 µM (inactive)	28.4 µM (inactive)			
CC(=O)OC1CC[C@@]2(C)C(C1)CC(OC(C)=O)[C@@H]1C2CC(OC(C)=O)[C@]2(C)C(C(C)CC=C(c3ccc(Cl)cc3)c3ccc(Cl)cc3)CCC12 (some centres undefined)	21.8 µM (inactive)	36.8 µM (inactive)	20.2 µM (inactive)	> 100 µM (inactive)			80.4 µM (inactive)	94 µM (inactive)	80.4 µM (inactive)	52.1 µM (inactive)		94.4 µM (inactive)		60.5 µM (inactive)	76.6 µM (inactive)	26.3 µM (inactive)	49.8 µM (inactive)	> 100 µM (inactive)	> 100 µM (inactive)	
O=C1CCCC2=C1CC1=C(CCCC1=O)N2c1ccccc1		> 100 µM (inactive)	> 100 µM (inactive)	> 100 µM (inactive)	> 100 µM (inactive)	> 100 µM (inactive)	> 100 µM (inactive)	> 100 µM (inactive)	> 100 µM (inactive)		> 100 µM (inactive)		> 100 µM (inactive)	> 100 µM (inactive)	> 100 µM (inactive)	> 100 µM (inactive)	> 100 µM (inactive)	> 100 µM (inactive)		
CN(C)CCCc1c2ccccc2nc2ccc(Cl)cc12	14.2 µM (inactive)	15.2 µM (inactive)	18.5 µM (inactive)	10.3 µM (inactive)	15.2 µM (inactive)	9.53 µM (inactive)	13.9 µM (inactive)		15.9 µM (inactive)	16.2 µM (inactive)	24.8 µM (inactive)	14.5 µM (inactive)	18 µM (inactive)	12.2 µM (inactive)	18.6 µM (inactive)	12.1 µM (inactive)	12.9 µM (inactive)	21.9 µM (inactive)		21.4 µM (inactive)
CCCCNC(=O)CCN(C(=O)O)S(=O)(=O)c1ccc(NC(=O)c2ccccc2)cc1	> 100 µM (inactive)	> 100 µM (inactive)	> 100 µM (inactive)	> 100 µM (inactive)	> 100 µM (inactive)	> 100 µM (inactive)	> 100 µM (inactive)	> 100 µM (inactive)	> 100 µM (inactive)	> 100 µM (inactive)	> 100 µM (inactive)	> 100 µM (inactive)	> 100 µM (inactive)	77.6 µM (inactive)	> 100 µM (inactive)	> 100 µM (inactive)	14 µM (inactive)			
CCOC(CCCN1CCC2(CC1)C(=O)N(C)CN2c1ccccc1)(OCC)c1ccc(F)cc1	16.9 µM (inactive)	7.89 µM (inactive)		10.3 µM (inactive)	6.59 µM (inactive)		7.66 µM (inactive)	8.85 µM (inactive)	15.4 µM (inactive)	12.7 µM (inactive)	13.6 µM (inactive)	4.6 µM (inactive)	16 µM (inactive)	12.2 µM (inactive)			10.4 µM (inactive)	13.7 µM (inactive)	11.6 µM (inactive)	6.87 µM (inactive)
CC(=O)NCCSC(=O)c1ccccc1	0.215 µM (active)	0.141 µM (active)	0.0146 µM (active)	0.0853 µM (active)	0.0226 µM (active)	0.918 µM (active)	0.126 µM (active)		0.192 µM (active)	0.147 µM (active)	0.243 µM (active)	0.148 µM (active)	0.013 µM (active)	0.166 µM (active)	1.38 µM (inactive)	< 0.033 µM (active)	0.0295 µM (active)	0.163 µM (active)		0.199 µM (active)
C=CCOC(=O)C[C@H](NC(=O)[C@H](Cc1ccc(O)cc1)NCC(F)(F)F)C(=O)OCC=C	25 µM (inactive)	> 100 µM (inactive)	34 µM (inactive)	45 µM (inactive)	> 100 µM (inactive)	> 100 µM (inactive)	> 100 µM (inactive)	83.4 µM (inactive)	> 100 µM (inactive)	> 100 µM (inactive)		> 100 µM (inactive)	40.7 µM (inactive)	> 100 µM (inactive)	> 100 µM (inactive)	59.6 µM (inactive)	54.3 µM (inactive)	> 100 µM (inactive)	35.3 µM (inactive)	
